Assay results taken from patent US9150592B2, “Heterocyclic nuclear hormone receptor modulators” (AbbVie Inc., priority 2012, dated 2015).
pIC50: −log10 of the molar value.

Experiments:
[1] = target: T1, Glucocorticoid Receptor (GR) (Homo sapiens, UniProt P04150); experiment: GR Fluorescence Polarization Assay (PolarScreen Glucocorticoid Receptor Competitor Assay, Red); conditions: IC50 class ranges, read-out: GR binding
T1 construct: purchased Invitrogen P2893
T1 sequence (P04150 1-777): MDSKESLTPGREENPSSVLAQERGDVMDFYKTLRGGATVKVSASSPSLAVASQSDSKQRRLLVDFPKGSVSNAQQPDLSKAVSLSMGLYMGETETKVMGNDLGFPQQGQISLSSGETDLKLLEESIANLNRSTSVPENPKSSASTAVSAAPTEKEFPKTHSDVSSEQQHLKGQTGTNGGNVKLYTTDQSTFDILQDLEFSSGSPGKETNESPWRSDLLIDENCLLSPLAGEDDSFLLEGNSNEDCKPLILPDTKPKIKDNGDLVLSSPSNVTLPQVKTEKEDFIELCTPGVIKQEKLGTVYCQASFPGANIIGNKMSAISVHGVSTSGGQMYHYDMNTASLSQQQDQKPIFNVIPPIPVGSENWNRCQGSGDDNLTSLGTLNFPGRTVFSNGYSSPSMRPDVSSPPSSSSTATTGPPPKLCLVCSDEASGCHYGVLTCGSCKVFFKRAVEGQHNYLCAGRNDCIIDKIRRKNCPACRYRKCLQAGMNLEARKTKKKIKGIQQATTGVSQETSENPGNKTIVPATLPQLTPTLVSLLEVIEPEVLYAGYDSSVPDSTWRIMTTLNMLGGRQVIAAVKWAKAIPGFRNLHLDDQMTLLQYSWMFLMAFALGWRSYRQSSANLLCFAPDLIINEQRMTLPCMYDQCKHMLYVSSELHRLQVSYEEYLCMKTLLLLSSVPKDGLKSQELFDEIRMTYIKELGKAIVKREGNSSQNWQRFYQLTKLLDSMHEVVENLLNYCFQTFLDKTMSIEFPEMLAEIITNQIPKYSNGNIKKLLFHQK
Outline: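 Competitive fluorescence-polarization assay using a red fluorescent glucocorticoid tracer with human GR in kit buffer. Compounds serially diluted 1:4 in DMSO, incubated with tracer and GR overnight at 4° C, then polarization read.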

[2] = tested on: IL-6 in A549 cells stimulated with IL-1β; experiment: A549 Cell Assay to Measure Inflammation Markers (inhibition of IL-1β-induced IL-6); type: cell-based; conditions: intrinsic activity, Emax class ranges; for Emax: Homo sapiens, A549, A549 Cell Assay to Measure Inflammation Markers
Outline: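 Compound pre-incubated with A549 cells 1 h at 37 °C, then stimulated with IL-1β (1 ng/mL final, 0.1% DMSO). Supernatant IL-6 quantified by MSD immunoassay after a further incubation. IC50 and Emax derived.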

| SMILES | pIC50 [1] | Emax [2] [%] | A549 Emax ([2]; A549 Cell Assay to Measure Inflammation Markers) |
| --- | --- | --- | --- |
| Cc1cc(Br)ccc1[C@@H]1SC[C@H](CO)Nc2c1c(-c1ccccn1)nn2C (racemic) [K.9] | > 7.00 | < 50 | – |
| CCn1nc(-c2ccccn2)c2c1N[C@H](C)CS[C@H]2c1ccc(C#CC(C)(C)O)cc1C (single isomer, unassigned) [M.31, 4-(4-(1-ethyl-7-methyl-3-(pyridin-2-yl)-4,6,7,8-tetrahydro-1H-pyrazolo[3,4-e][1,4]thiazepin-4-yl)-3-methylphenyl)-2-methylbut-3-yn-2-ol] | > 7.00 | > 70 | – |
| COc1cc(Cl)ccc1C1SC(C)(C)CNc2c1c(C1CC1)nn2C (centres unmarked) [D.47] | 6.00 to 7.00 | < 50 | – |
| Cc1cc(Cl)ccc1[C@@H]1S[C@H](CCO)CNc2c1c(C)nn2C (single isomer, unassigned) [M.17, 2-[4-(4-chloro-2-methyl-phenyl)-1,3-dimethyl-4,6,7,8-tetrahydro-1H-pyrazolo[3,4-e][1,4]thiazepin-6-yl]-ethanol] | 6.00 to 7.00 | < 50 | – |
| Cn1nc(-c2ccc(F)cc2)c2c1NCCSC2c1ccc(Cl)cc1Cl (centres unmarked) [D.94] | > 7.00 | < 50 | – |
| Cc1ncccc1NC(=O)c1ccc(C2SC(C)(C)CNc3c2c(C)nn3C)c(Cl)c1 (single isomer, unassigned) [M.9, 3-chloro-N-(2-methylpyridin-3-yl)-4-(1,3,6,6-tetramethyl-4,6,7,8-tetrahydro-1H-pyrazolo[3,4-e][1,4]thiazepin-4-yl)benzamide] | 6.00 to 7.00 | – | D (a compound with Emax<50%) |
| Cn1nc(C2CCCC2)c2c1NCC(C)(C)SC2c1ccc(Cl)cc1Cl (centres unmarked) [D.79] | > 7.00 | < 50 | – |
| Cc1ccc(Cl)cc1C1SCCNc2c1c(-c1ccccn1)nn2C (centres unmarked) [D.40] | > 7.00 | < 50 | – |
| Cc1ccccc1C1SCCNc2c1c(-c1ccccn1)nn2C (centres unmarked) [D.14] | > 7.00 | < 50 | – |
| Cc1cc(C(=O)Nc2cccnc2)ccc1C1SC(C)(C)CNc2c1c(C)nn2C (centres unmarked) [H.1, 3-methyl-N-(3-pyridyl)-4-(1,3,6,6-tetramethyl-7,8-dihydro-4H-pyrazolo[3,4-e][1,4]thiazepin-4-yl)benzamide] | 5.00 to 6.00 | < 50 | – |
| Cn1nc(-c2ccccn2)c2c1NCCSC2c1ccc(Cl)cc1F (centres unmarked) [D.103] | > 7.00 | < 50 | – |
| Cc1cc(Cl)ccc1C1SCCNc2c1c(C)nn2C (centres unmarked) [D.59] | 6.00 to 7.00 | < 50 | – |
| Cn1nc(-c2ccccn2)c2c1NCCS[C@@H]2c1ccc(Br)cc1Cl (single isomer, unassigned) [M.1, 4-(4-bromo-2-chlorophenyl)-1-methyl-3-(pyridin-2-yl)-4,6,7,8-tetrahydro-1H-pyrazolo[3,4-e][1,4]thiazepine] | 6.00 to 7.00 | < 50 | – |
| CCn1nc(-c2ccccn2)c2c1N[C@@H](C)CS[C@H]2c1ccc(CCC(C)(C)O)cc1C (single isomer, unassigned) [M.39, 4-(4-(1-ethyl-7-methyl-3-(pyridin-2-yl)-4,6,7,8-tetrahydro-1H-pyrazolo[3,4-e][1,4]thiazepin-4-yl)-3-methylphenyl)-2-methylbutan-2-ol] | > 7.00 | > 70 | – |
| Cc1cc2c(cnn2-c2ccc(F)cc2)cc1C1SCCNc2c1c(-c1ccccn1)nn2C (centres unmarked) [D.109] | > 7.00 | > 70 | – |
| Cc1cc(OCc2cccnc2C)ccc1C1SCCNc2c1c(-c1ccccn1)nn2C (centres unmarked) | > 7.00 | < 50 | – |
| Cc1nn(C)c2c1C(c1ccc(Cl)cc1Cl)SC1(CCOCC1)CN2 (centres unmarked) [D.67] | > 7.00 | < 50 | – |
| Cn1nc(-c2ccccn2)c2c1NCCSC2c1ccccc1Cl (centres unmarked) | > 7.00 | < 50 | – |
| COC(=O)c1ccc(C2SCC(C)Nc3c2c(-c2ccccn2)nn3C)c(C)c1 (centres unmarked) [E.7] | > 7.00 | > 50 | – |
